Measurements taken from patent US11298330B2, “Magnesium compositions and methods of use” (Neurocentria, Inc., priority 2017, dated 2022).

Legend:
[1] = test system: young (9-month old) and aged (25-month old) rats; conditions: food containing 2% magnesium oxide for 8 days, cited from earlier work
[2] = test system: diabetic patients; conditions: nearly 1 g of magnesium daily for 1 month; cited from earlier work
[3] = test system: cultured rat hippocampal neurons; test: Probability of transmitter release (Pr) by FM dye uptake; assay type: cell-based; conditions: extracellular magnesium concentration from 0.8 mM to 1.2 mM for 4 h
Protocol: An example of the effect of calcium and magnesium on the regulation of Probability of transmitter release (Pr) is shown in FIG. 3. In an experiment, rat hippocampal neurons were cultured in vitro in varying concentrations of extracellular calcium or magnesium, thereby effectively varying concentrations of intracellular calcium or magnesium. A traceable dye was used as a model neurotransmitter to measure the change in Pr. […] Furthermore, at a relatively low intracellular calcium concentration, the inverse relationship between intracellular magnesium concentration and Pr was more apparent, as shown in FIG. 3B. At a low calcium concentration condition, increasing the extracellular magnesium concentration promoted more synapses with a higher intracellular magnesium concentrations and low Pr values. […]
The Probability of transmitter release (Pr) of cultured rat hippocampal neurons was measured by quantification of N-β-Triethylammoniumpropyl)-4-(4-(Dibutylamino) Styryl) Pyridinium Dibromide (FM) dye uptake following a string of 30 single 1 Hertz (Hz) action potentials (Pr1Ap). […] Intracellular magnesium concentration was quantified by the intensity of MgGreen (MgGrn), a fluorescent dye that was proportional to magnesium concentration (Zhou et al., 2015).

[4] = test system: diabetic patients; conditions: 720 mg/day for three months; cited from earlier work

SMILES	side-effect [1]	cognitive function ([1]; gain transient)	increase of serum magnesium level [2]	metabolic control [2]	effect on calcium-Pr relationship [3]	blood magnesium levels raised, on average [4]	metabolic control as assessed by HbAlc levels [4]
[O]=[Mg] [magnesium oxide]	diarrhea and weight loss	some sign of improvement	about 10%	only minor improvement	–	–	–
[Mg+2] [magnesium]	–	–	–	–	shifted the calcium-Pr relationship to the right	about 10%	no improvement
